For assay [1], the system named is genotype 4a (ED43) stable HCV replicon in Huh-7-derived cells. Briefly: Stable subgenomic HCV replicon EC50, genotype 4a (Renilla luciferase). The format is cell-based, hepatitis C virus. The conditions noted are these: Hepatitis C virus, 72 h, read-out: EC50 4A RLUC. The procedure, abridged:
(§1)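 Compounds, three-fold diluted, were applied to Huh-7-derived cells harbouring luciferase replicons (genotype 1a H77, 1b Con1, 2a JFH-1, 4a ED43, with strain-specific adaptive mutations). Seventy-two hours later, intracellular replication was gauged by Renilla luciferase activity and EC50 derived by regression.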
(In antiviral work, replicon cells carry a viral genome segment that copies itself.)

Assay [2] deals with genotype 3a (S52) wild type transient HCV replicon in Huh-7-derived cells. Nature of the assay: Transient-transfected HCV replicon EC50, genotype 3a wild type. The assay is classed as cell-based, hepatitis C virus. The conditions noted are these: Hepatitis C virus; transient-transfected replicon genotype 3a wild type, 72 h; read-out: EC50 3A WT.
For assay [3], the system named is genotype 1b (Con1) stable HCV replicon in Huh-7-derived cells. Nature of the assay: Stable subgenomic HCV replicon EC50, genotype 1b (Renilla luciferase). The conditions noted are these: Hepatitis C virus, stable replicon genotype 1b, 72 h, read-out: EC50 1B RLUC. The format is cell-based, hepatitis C virus. Summed up:
as §1

Assay [4] deals with genotype 1a (H77) wild type transient HCV replicon in Huh-7-derived cells. Nature of the assay: Transient-transfected HCV replicon EC50, genotype 1a wild type. The format is cell-based, hepatitis C virus. The conditions noted are these: Hepatitis C virus, 72 h, transient-transfected replicon genotype 1a wild type, read-out: EC50 1A WT.
For assay [5], the system named is genotype 1b NS3/4a protease inhibitor resistant variant D168A transient HCV replicon in Huh-7-derived cells. Briefly: Transient-transfected HCV replicon EC50, genotype 1b D168A. The assay is classed as cell-based, hepatitis C virus. Conditions: Hepatitis C virus, 72 h, read-out: EC50 1B D168A, transient-transfected replicon genotype 1b D168A resistant variant, 72 h.

For assay [6], the system named is genotype 1a (H77) stable HCV replicon in Huh-7-derived cells. Nature of the assay: Stable subgenomic HCV replicon EC50, genotype 1a (Renilla luciferase). The format is cell-based, hepatitis C virus. Conditions: Hepatitis C virus, stable replicon genotype 1a, 72 h, read-out: EC50 1A RLUC. Summed up: as §1
Assay [7] concerns genotype 2a (JFH-1) stable HCV replicon in Huh-7-derived cells. Briefly: Stable subgenomic HCV replicon EC50, genotype 2a (Renilla luciferase). The format is cell-based, hepatitis C virus. The conditions noted are these: Hepatitis C virus, stable replicon genotype 2a, 72 h, read-out: EC50 2A RLUC. Summed up:
as §1

The test system of assay [8] is genotype 1b (Con1) wild type transient HCV replicon in Huh-7-derived cells. Briefly: Transient-transfected HCV replicon EC50, genotype 1b wild type. The assay is classed as cell-based, hepatitis C virus. The conditions noted are these: Hepatitis C virus, 72 h, transient-transfected replicon genotype 1b wild type, read-out: EC50 1B WT.
Assay [9] concerns genotype 3a (S52) stable HCV replicon in Huh-7-derived cells. Nature of the assay: Stable subgenomic HCV replicon EC50, genotype 3a (Renilla luciferase). The format is cell-based, hepatitis C virus. The conditions noted are these: Hepatitis C virus, 72 h, read-out: EC50 3A RLUC.
The subject of assay [10] is genotype 1a NS3/4a protease inhibitor resistant variant R155K transient HCV replicon in Huh-7-derived cells. Nature of the assay: Transient-transfected HCV replicon EC50, genotype 1a R155K. The conditions noted are these: Hepatitis C virus, 72 h, read-out: EC50 1A R155K, transient-transfected replicon genotype 1a R155K resistant variant, 72 h. The format is cell-based, hepatitis C virus.

Assay [11] deals with HCV NS3 protease domain genotype 1b (Hepatitis C virus genotype 1b (isolate Con1), UniProt Q9WMX2, E1202G). Briefly: Ki determination, NS3 protease genotype 1b (fluorogenic depsipeptide substrate). The conditions noted are these: 50 pM enzyme, NS4A peptide. The assay is classed as biochemical.
Assay [12] has as its target HCV NS3 protease domain genotype 3a (Hepatitis C virus genotype 3a, UniProt Q81258). Nature of the assay: Ki determination, NS3 protease genotype 3a (fluorogenic depsipeptide substrate). Conditions: 200 pM enzyme, NS4A peptide. The assay is classed as biochemical. Summed up: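 The NS3 protease domain (aa 1-181) with 20 μM NS4A peptide was used at 50 pM with 4 μM substrate (1b) or at 200 pM with 2 μM substrate (3a). Inhibitors (100 nM-5 pM) were pre-incubated 1 h at room temperature in HEPES/glycerol/DTT buffer with 10% DMSO. Steady-state rates (90-120 min) gave Ki via the Morrison equation, corrected for active enzyme and [S]/Km.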

HCV NS3 protease domain genotype 3a, sequence (Q81258 whole entry, looked up, the tested form may be a part): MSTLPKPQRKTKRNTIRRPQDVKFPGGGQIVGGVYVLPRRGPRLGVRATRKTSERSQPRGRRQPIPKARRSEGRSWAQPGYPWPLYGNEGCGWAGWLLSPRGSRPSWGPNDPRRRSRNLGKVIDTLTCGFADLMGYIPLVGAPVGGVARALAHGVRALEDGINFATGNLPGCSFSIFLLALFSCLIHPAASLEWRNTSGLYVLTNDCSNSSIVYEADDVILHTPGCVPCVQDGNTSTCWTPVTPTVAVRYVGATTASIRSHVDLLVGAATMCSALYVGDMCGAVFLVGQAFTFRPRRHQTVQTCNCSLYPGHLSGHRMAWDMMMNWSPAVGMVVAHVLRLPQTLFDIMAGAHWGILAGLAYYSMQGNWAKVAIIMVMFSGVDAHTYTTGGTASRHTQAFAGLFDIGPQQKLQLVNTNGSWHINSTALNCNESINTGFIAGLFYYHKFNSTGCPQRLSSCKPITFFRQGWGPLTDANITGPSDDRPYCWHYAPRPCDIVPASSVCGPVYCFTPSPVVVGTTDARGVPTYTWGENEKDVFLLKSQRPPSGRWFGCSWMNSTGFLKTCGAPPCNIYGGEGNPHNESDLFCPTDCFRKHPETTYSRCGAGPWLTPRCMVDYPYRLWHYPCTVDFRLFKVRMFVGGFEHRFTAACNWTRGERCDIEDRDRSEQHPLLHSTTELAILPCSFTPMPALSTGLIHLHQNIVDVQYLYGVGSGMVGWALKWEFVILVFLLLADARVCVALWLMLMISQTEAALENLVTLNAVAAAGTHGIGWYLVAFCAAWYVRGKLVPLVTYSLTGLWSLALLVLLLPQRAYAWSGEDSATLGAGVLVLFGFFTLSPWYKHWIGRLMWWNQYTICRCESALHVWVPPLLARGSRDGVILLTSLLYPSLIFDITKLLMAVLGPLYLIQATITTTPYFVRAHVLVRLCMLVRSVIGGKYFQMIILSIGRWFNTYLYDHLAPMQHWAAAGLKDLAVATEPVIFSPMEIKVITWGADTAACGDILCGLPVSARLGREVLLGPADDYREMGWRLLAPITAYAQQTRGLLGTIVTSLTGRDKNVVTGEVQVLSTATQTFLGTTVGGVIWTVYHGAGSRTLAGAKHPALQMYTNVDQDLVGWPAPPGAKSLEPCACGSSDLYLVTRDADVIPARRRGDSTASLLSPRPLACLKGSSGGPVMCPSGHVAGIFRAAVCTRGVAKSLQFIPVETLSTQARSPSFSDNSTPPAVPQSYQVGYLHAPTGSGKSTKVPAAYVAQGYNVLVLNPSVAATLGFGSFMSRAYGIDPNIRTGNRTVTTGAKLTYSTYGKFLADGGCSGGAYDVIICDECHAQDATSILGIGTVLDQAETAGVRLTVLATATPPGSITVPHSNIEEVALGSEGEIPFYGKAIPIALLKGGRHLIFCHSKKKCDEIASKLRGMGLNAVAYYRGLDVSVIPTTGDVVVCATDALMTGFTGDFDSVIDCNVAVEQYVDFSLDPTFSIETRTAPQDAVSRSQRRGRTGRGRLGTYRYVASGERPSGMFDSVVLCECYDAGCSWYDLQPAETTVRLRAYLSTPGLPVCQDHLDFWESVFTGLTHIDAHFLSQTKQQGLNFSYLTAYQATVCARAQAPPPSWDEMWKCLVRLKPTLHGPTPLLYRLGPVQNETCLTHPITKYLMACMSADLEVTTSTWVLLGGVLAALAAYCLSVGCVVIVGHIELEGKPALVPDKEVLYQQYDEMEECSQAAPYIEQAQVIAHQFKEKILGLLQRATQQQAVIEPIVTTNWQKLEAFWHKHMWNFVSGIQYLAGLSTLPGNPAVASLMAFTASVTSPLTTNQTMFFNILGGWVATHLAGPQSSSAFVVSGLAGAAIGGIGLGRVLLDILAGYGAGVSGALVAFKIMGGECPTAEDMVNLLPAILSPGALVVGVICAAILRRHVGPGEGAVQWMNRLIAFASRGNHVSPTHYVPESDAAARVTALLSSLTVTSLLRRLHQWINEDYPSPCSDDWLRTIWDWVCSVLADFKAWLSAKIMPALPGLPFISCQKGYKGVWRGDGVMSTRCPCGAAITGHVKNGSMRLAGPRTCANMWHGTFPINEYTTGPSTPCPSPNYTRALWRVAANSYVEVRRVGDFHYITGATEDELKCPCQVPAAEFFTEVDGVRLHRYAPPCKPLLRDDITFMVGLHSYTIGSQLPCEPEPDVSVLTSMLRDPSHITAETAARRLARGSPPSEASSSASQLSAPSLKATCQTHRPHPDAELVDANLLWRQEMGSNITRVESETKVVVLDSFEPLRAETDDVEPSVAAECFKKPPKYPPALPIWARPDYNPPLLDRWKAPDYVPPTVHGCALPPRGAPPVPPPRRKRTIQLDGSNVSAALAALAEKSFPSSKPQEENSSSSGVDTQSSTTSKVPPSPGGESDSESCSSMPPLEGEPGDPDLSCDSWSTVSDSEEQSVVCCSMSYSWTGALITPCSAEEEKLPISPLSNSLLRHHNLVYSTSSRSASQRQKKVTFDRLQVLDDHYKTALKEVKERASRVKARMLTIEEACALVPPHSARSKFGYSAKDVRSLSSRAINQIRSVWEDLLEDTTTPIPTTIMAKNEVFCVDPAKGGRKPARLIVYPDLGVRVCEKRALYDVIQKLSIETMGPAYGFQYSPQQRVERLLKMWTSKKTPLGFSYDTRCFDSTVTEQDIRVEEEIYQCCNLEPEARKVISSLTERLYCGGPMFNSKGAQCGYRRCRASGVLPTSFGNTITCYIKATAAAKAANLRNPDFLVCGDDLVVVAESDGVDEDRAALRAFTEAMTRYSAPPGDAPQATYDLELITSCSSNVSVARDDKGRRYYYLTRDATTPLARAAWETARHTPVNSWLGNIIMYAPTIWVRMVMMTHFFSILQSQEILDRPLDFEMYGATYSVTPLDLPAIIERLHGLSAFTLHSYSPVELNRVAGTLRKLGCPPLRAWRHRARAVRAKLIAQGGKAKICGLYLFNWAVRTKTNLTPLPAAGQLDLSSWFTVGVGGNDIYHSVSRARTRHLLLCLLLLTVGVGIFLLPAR
HCV NS3 protease domain genotype 1b, sequence (Q9WMX2 1027-1208 E1202G): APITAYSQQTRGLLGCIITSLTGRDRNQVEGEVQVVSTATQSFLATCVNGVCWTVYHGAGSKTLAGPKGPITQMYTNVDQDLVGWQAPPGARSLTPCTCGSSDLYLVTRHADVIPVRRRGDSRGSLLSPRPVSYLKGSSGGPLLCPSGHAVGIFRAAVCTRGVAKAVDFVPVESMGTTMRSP

In general, EC50 refers to the concentration giving half of the maximal effect. In general, Ki refers to the equilibrium dissociation constant of an inhibitor or competing ligand from its target. Regarding `CC[C@@H]1[C@@H]2CN(C(=O)[C@H](C(C)(C)C)NC(=O)O[C@@H]3C[C@H]3CCCCCc3nc4ccc(OCC(F)(F)F)cc4nc3O2)[C@@H]1C(=O)N[C@]1(C(=O)NS(=O)(=O)C2(C)CC2)C[C@H]1C(F)F` [Example 55, (1aR,5S,8S,9S,10R,22aR)-5-tert-butyl-N-[(1R,2R)-2-(difluoromethyl)-1-{[(1-methylcyclopropyl)sulfonyl]carbamoyl}cyclopropyl]-9-ethyl-3,6-dioxo-14-(2,2,2-trifluoroethoxy)-1,1a,3,4,5,6,9,10,18,19,20,21,22,22a-tetradecahydro-8H-7,10-methanocyclopropa[18,19][1,10,3,6]dioxadiazacyclononadecino[11,12-b]quinoxaline-8-carboxamide], the EC50 stood at 3.5 nM in assay [1]; 71 nM in assay [2]; 3.8 nM in [3]; 8 nM in assay [4]; 53 nM in [5]; 13 nM in assay [6]. The EC50 is 12 nM in [7], 2.3 nM in [8], 140 nM in assay [9] and 32 nM in assay [10]. Further, the Ki in assay [11] turned out to be 0.09 nM; in assay [12], 0.2 nM.

On to `CC[C@@H]1[C@@H]2CN(C(=O)[C@H](C(C)(C)C)NC(=O)O[C@@H]3C[C@@H]4C[C@@H]4[C@H]3CCCCC(F)(F)c3nc4ccc(OC)cc4nc3O2)[C@@H]1C(=O)N[C@]1(C(=O)NS(=O)(=O)C2CC2)C[C@H]1C(F)F` [Example 59, (1aS,2aR,6S,9S,10 S,11R,23aR,23bS)-6-tert-butyl-N-[(1R,2R)-1-[(cyclopropylsulfonyl)carbamoyl]-2-(difluoromethyl)cyclopropyl]-10-ethyl-19,19-difluoro-15-methoxy-4,7-dioxo-1a,2,2a,4,5,6,7,10,11,19,20,21,22,23,23a,23b-hexadecahydro-1H,9H-8,11-methanocyclopropa[4′,5′]cyclopenta[1′,2′:18,19][1,10,3,6]dioxadiazacyclononadecino[11,12-b]quinoxaline-9-carboxamide], for which the EC50 in assay [1] was 5.6 nM; in [2] it was 15 nM; in [3] it was 11 nM; in assay [4], 10 nM; in assay [5], 6.4 nM; in assay [6], 5.4 nM. Besides, the EC50 in assay [7] amounted to 13 nM; in assay [8], 6.8 nM; in assay [9], 20 nM; in [10] it was 6.8 nM. The Ki came to 0.04 nM in [11] and 0.06 nM in assay [12].

As for `CCC[C@@H]1[C@@H]2CN(C(=O)[C@H](C(C)(C)C)NC(=O)O[C@@H]3C[C@H]3CCCCC(F)(F)c3nc4ccc(OC)cc4nc3O2)[C@@H]1C(=O)N[C@]1(C(=O)NS(=O)(=O)C2CC2)C[C@H]1C(F)F` [Example 60, (1aR,5S,8S,9S,10R,22aR)-5-tert-butyl-N-[(1R,2R)-1-[(cyclopropylsulfonyl)carbamoyl]-2-(difluoromethyl)cyclopropyl]-18,18-difluoro-14-methoxy-3,6-dioxo-9-propyl-1,1a,3,4,5,6,9,10,18,19,20,21,22,22a-tetradecahydro-8H-7,10-methanocyclopropa[18,19][1,10,3,6]dioxadiazacyclononadecino[11,12-b]quinoxaline-8-carboxamide], the EC50 in assay [1] was 5.4 nM; in assay [2], 9.8 nM; in assay [3] it was 4.8 nM; in assay [4], 5.8 nM; in [5], 15 nM; in [6] it was 11 nM. Besides, the EC50 was 7.7 nM in assay [7], 2.3 nM in assay [8], 45 nM in [9] and 8.6 nM in assay [10]. For the same compound, the Ki was determined as 0.04 nM in assay [11] and 0.08 nM in [12].

Take `COc1ccc2nc3c(nc2c1)O[C@H]1CN(C(=O)[C@H](C(C)(C)C)NC(=O)O[C@@H]2C[C@@H]4C[C@@H]4[C@H]2CCCCC3(F)F)[C@H](C(=O)N[C@]2(C(=O)NS(=O)(=O)C3CC3)C[C@H]2C(F)F)[C@@H]1C` [Example 62, (1aS,2aR,6S,9S,10S,11R,23aR,23bS)-6-tert-butyl-N-[(1R,2R)-1-[(cyclopropylsulfonyl)carbamoyl]-2-(difluoromethyl)cyclopropyl]-19,19-difluoro-15-methoxy-10-methyl-4,7-dioxo-1a,2,2a,4,5,6,7,10,11,19,20,21,22,23,23a,23b-hexadecahydro-1H,9H-8,11-methanocyclopropa[4′,5′]cyclopenta[1′,2′:18,19][1,10,3,6]dioxadiazacyclononadecino[11,12-b]quinoxaline-9-carboxamide]: the concentration for a half-maximal effect (EC50) in assay [1] is 2.4 nM; in [2], 4 nM; in [3] it was 3 nM; in assay [4] it was 3.5 nM; in assay [5] it was 2 nM; in assay [6] it was 3.4 nM. Besides, the EC50 in assay [7] worked out at 5 nM; in [8] it was 1.5 nM; in [9], 8.5 nM; in [10] it was 2.7 nM. In addition, the values for the Ki in assay [11] and in assay [12] were 0.04 nM and 0.03 nM, respectively.

Take `CC[C@@H]1[C@@H]2CN(C(=O)[C@H](C(C)(C)C)NC(=O)O[C@@H]3C[C@@H]4C[C@@H]4[C@H]3CCCCCc3nc4ccc(OC)cc4nc3O2)[C@@H]1C(=O)N[C@]1(C(=O)NS(=O)(=O)C2CC2)C[C@H]1C(F)F` [Example 70, (1aS,2aR,6S,9S,10S,11R,23aR,23bS)-6-tert-butyl-N-[(1R,2R)-1-[(cyclopropylsulfonyl)carbamoyl]-2-(difluoromethyl)cyclopropyl]-10-ethyl-15-methoxy-4,7-dioxo-1a,2,2a,4,5,6,7,10,11,19,20,21,22,23,23a,23b-hexadecahydro-1H,9H-8,11-methanocyclopropa[4′,5′]cyclopenta[1′,2′:18,19][1,10,3,6]dioxadiazacyclononadecino[11,12-b]quinoxaline-9-carboxamide]: the EC50 worked out at 6.4 nM in assay [1]; 17 nM in assay [2]; 8.5 nM in assay [3]; 7.7 nM in assay [4]; 7.3 nM in [5]; 8.4 nM in assay [6]. Further, the EC50 stood at 15 nM in assay [7], 6.1 nM in [8], 41 nM in [9] and 5.4 nM in assay [10]. The Ki in assay [11] and in [12] was 0.05 nM throughout.

Take `C[C@@H]1[C@@H]2CN(C(=O)[C@H](C(C)(C)C)NC(=O)O[C@@H]3C[C@@H]4C[C@@H]4[C@H]3CCCCCc3nc4ccc(Cl)cc4nc3O2)[C@@H]1C(=O)N[C@]1(C(=O)NS(=O)(=O)C2CC2)C[C@H]1C(F)F` [Example 79, (1aS,2aR,6S,9S,10S,11R,23aR,23bS)-6-tert-butyl-15-chloro-N-[(1R,2R)-1-[(cyclopropylsulfonyl)carbamoyl]-2-(difluoromethyl)cyclopropyl]-10-methyl-4,7-dioxo-1a,2,2a,4,5,6,7,10,11,19,20,21,22,23,23a,23b-hexadecahydro-1H,9H-8,11-methanocyclopropa[4′,5′]cyclopenta[1′,2′:18,19][1,10,3,6]dioxadiazacyclononadecino[11,12-b]quinoxaline-9-carboxamide]: the EC50 in assay [1] was 5.6 nM; in assay [2] it was 9.2 nM; in assay [3], 5.8 nM; in assay [4], 6.1 nM; in [5] it was 11 nM; in [6], 7 nM. In addition, the EC50 in assay [7] amounted to 4.1 nM; in [8], 3 nM; in [9], 71 nM; in assay [10] it was 7.1 nM. The Ki in assay [11] and in assay [12] was 0.06 nM each time.

Source of the values: patent publication US10335409B2 (priority 2012, dated 2019).
